Laboratory results reported in patent US20100178293A1 (priority 2007, published 2010).

Columns and labels:
[1] = test system: mouse model for Alzheimer's disease; settings: literature, Lim et al. 2000; cited from earlier work
Tg2576 Tg+ mice = experiment: Tg2576 mouse model of Alzheimer's disease (Example 2); type: in vivo; settings: 100 μg i.v. weekly for 6 months
Experimental: Ten-month-old male and female Tg2576 Tg+ and Tg− are used (n=10 animals/group). Tg+ mice are treated with Campath 100 μg i.v. weekly for 6 months or placebo (saline), respectively before being sacrificed. TG− mice served as controls Animals are perfused before brain dissection with 0.9% normal saline followed by HEPES buffer, pH 7.2, containing protease inhibitors. […] Tg+ mice fed chow containing ibuprofen for 6 months serve as positive treatment control.

RML prion = type: in vivo, mice; settings: Example 1; RML prion i.p.; Campath 100 μg i.v.

Molecule | plaque pathology and inflammation in a mouse model for Alzheimer's disease [1] | activity in a mouse model of Alzheimer's disease (Tg2576 Tg+ mice) | inhibition of the spread of prions in an animal model (RML prion)
CC(C)Cc1ccc(C(C)C(=O)O)cc1 (stereo not drawn) [Ibuprofen] | suppresses plaque pathology and inflammation |  | 
alemtuzumab [Campath] |  | active | can inhibit the spread of prions
